Results from patent publication US4011390A, “Semi-synthetic aminocyclitol aminoglycoside antibiotics and methods for the preparation thereof” (Schering-Plough Corporation, priority 1974, dated 1977).

What was measured:
Test in all cases: Activity against resistant strains
Assay type in all cases: cell-based
E. coli = E. coli W677/R55 and LA290/R55
Excerpt: (§1) In many instances, bacterial resistance is related to the organism's ability to inactivate the antibacterial agent via enzymatic (biochemical) means. Some species inactivate aminoglycosides antibiotics by acetylating the antibacterial agent, others by phosphorylation and still others by adenylylating. Some strains have several different inactivating capabilities. Further, the inactivation reactions occur at a specific site or sites on the antibacterial agent. We have shown by the compounds of this invention that alteration of sites on the antibiotic molecule not directly involved in inactivation processes can nevertheless frustrate these inactivation processes. […] The tables illustrate that the mutamicins include compounds which are active against strains having different mechanisms of inactivation of gentamicin, sisomicin, kanamycin, neomycin and torbramycin. For example, some mutamicins are effective against strains of E. coli which contain adenylylating R factors such as E. coli W677/R55 and LA290/R55. These E. coli strains are resistant to gentamicin, sisomicin and torbramycin. Some are also effective against gentamicin, tobramycin and kanamycin resistant adenylylating strains of Klebsiella pneumoniae and also kanamycin, neomycin phosphorylating strains of E. coli and Klebsiella pneumoniae. Further, some mutamicins are effective against gentamicin and sisomicin resistant strains of Pseudomonas aeruginosa and gentamicin, sisomicin, tobramycin resistant Providence which is sensitive to kanamycin. Thus, the mutamicins afford a means for combatting strains of bacteria which have already developed a variety of mechanisms for resisting the action of many of the antibiotics known in the art or currently in commercial use.

Pseudomonas aeruginosa = conditions: gentamicin and sisomicin resistant strains
Excerpt: as §1

Providence = conditions: gentamicin, sisomicin, tobramycin resistant Providence
Excerpt: as §1

CN[C@@H]1[C@@H](O)[C@@H](O[C@@H]2[C@@H](O)[C@H](O[C@H]3OC(CN)=CC[C@H]3N)[C@@H](N)C[C@H]2N)OC[C@]1(C)O [Sisomicin, O-2,6-Diamino-2,3,4,6-tetradeoxy-α-D-glycero-hex-4-eno-pryanosyl(1→4)-O-[3-deoxy-4-C-methyl-3-(methylamino)-B-L-arabinopyranosyl(1→6)] -2-deoxy-D-streptamine, reference compound]
resistant: activity against strains containing adenylylating R factors (E. coli) | activity against resistant strains (Pseudomonas aeruginosa) | activity against resistant Providence (Providence)
